Test results published in patent US6929790B2, “Compositions to control oral microbial oxidation-reduction (Eh) levels” (priority 1996, dated 2005).

How the values were obtained:
[1] = tested on: soft tissues of the oral cavity; details: cited from earlier work
mixed oral bacteria = experiment: Eh during incubation of salivary sediment and salivary supernatant with zinc chloride and/or hydrogen peroxide (Example II); details: zinc chloride 6.0 mM (0.08%), hydrogen peroxide 0.5%, 37° C., 24 hours
Description: (§1) To collect salivary sediment and salivary supernatant for the assay, saliva stimulated by chewing paraffin wax was expectorated into test-tubes chilled in cracked ice. […] Following collection, the saliva was centrifuged at 1740×g for 15 minutes and the supernatant was subsequently removed by pipette and kept on ice until the assay was run. Next, the sediment was washed three times with ice cold distilled water to remove any residual salivary supernatant. The washed salivary sediment was chilled in crushed ice until the assay was run. Prior to incubating the samples and running the assay, the washed salivary sediment was re-suspended in distilled water to a final concentration of 50 percent (V/V).
(§2) The oxidation-reduction potential (Eh) was determined in each incubation mixture using a platinum electrode and a potassium chloride salt bridge leading to a calomel reference electrode connected to a pH meter used as a millivoltmeter.
A tube was prepared containing salivary sediment and salivary supernatant only (water control).

oral bacteria [2] = experiment: In vivo cysteine rinse challenge, VSC (Halimeter) and tongue Eh before and after test rinse (Examples IV-VII); parameters: species or system human subjects
Description: The ability of a zinc chloride rinse solution to reduce or prevent the formation of volatile sulfur compounds (VSC) in vivo following successive challenges with a cysteine rinse was studied in this Example. The rinse solution consisted of zinc chloride at 6 mM (0.08%). […] The subject rinsed his/her mouth with 5 ml of a 6 mM cysteine solution for 30 seconds to stimulate substantial VSC production by the oral bacteria. […] Before and following the rinse, a Halimeter instrument was used to measure the volatile sulfur compounds (VSC) produced. Simultaneously, a platinum electrode was placed on the posterior dorsum surface of the tongue, just anterior to the circumvallate papillae to measure the Eh. After 20 minutes, the subject rinsed his/her mouth with 5 ml of the zinc chloride solution for 30 seconds. Again, the VSC of the subject's mouth air and the Eh were measured. The subject then rinsed successively with the 6 mM cysteine solution at 40, 60, 140, 320 and 380 minutes and the VSC and Eh of the subject's oral cavity were re-measured each time (see FIG. 5) using the Halimeter and the platinum electrode.
(§3) As before, 5 ml of the zinc/peroxide/chloride ion composition of this invention was applied as a rinse for 30 seconds.
as §3
The abilities of 0.1% sodium chlorite rinse solutions, one without and one with zinc chloride at 6 mM (0.08%) were compared in this Example for their abilities to reduce or prevent the formation of VSC in vivo following successive challenges with a cysteine rinse as before. The oral rinse consisted of application of 5 ml for 30 seconds of either an 0.1% sodium chlorite solution or an 0.1% sodium chlorite solution to which zinc chloride at 0.08% had been added.

[3] = 25° C.; cited from earlier work
[4] = tested on: mixed bacteria in salivary sediment; experiment: Eh lowering by amino acids or salivary supernatant in the salivary sediment system; details: 3 mM amino acid, 16.7% salivary sediment, 60 mM phosphate buffer, 37° C., up to 24 hours; for Lowest Eh reached, Group B: Group B (next lowest Eh); for Lowest Eh reached, Group A: Group A (highest Eh levels)
Description: This model utilizes the mixed oral bacteria collected in the salivary sediment obtained from whole saliva by centrifugation. […] This model is recognized in the art as an effective proxy to study the microbial metabolic and related biochemical processes of the oral cavity.
as §1
A control tube contained sediment and water.
as §2

oral bacteria [5] = experiment: Zinc ion concentration versus rate of volatile sulfur compound production from cysteine (FIG. 1); format: cell-based; details: inhibition is exponential
Description: Inhibition is exponential and occurs maximally once the zinc ion concentration reaches about 0.2%.

OO [hydrogen peroxide]
Hydrogen peroxide concentration above which it can be harmful to the soft tissues of the oral cavity [1]: 3.0 to 3.5%

[Cl-].[Cl-].[Zn+2] [zinc chloride]
Decrease in the Eh during incubation (mixed oral bacteria): some decrease in the Eh | Eh of the incubation mixture compared to salivary supernatant plus salivary sediment control (mixed oral bacteria): significantly raised the Eh | Time for which the VSC response to subsequent cysteine rinses was retarded (oral bacteria [2]; Example IV, zinc chloride 6 mM (0.08%), 5 ml rinse for 30 seconds): about 5 hours | VSC response to cysteine rinsing (oral bacteria [2]; Example IV, zinc chloride 6 mM (0.08%), 5 ml rinse for 30 seconds, 6 mM cysteine challenges): reduced the ability of the oral bacteria to produce the VSC response to cysteine rinsing | Eh during rinsing (oral bacteria [2]; Example IV, zinc chloride 6 mM (0.08%), platinum electrode on tongue dorsum): raised to a small degree | Solubility [3]: 432 @ 25 °C g/100 cc

NCCC[C@H](N)C(=O)O [ornithine]
Lowest Eh reached, Group B [4]: 55 millivolts

N[C@@H](Cc1ccccc1)C(=O)O [phenylalanine]
Lowest Eh reached, Group A [4]: 100 millivolts

[Zn+2] [zinc ion]
Zinc ion concentration at which inhibition of volatile sulfur compound production from cysteine is maximal (oral bacteria [5]): about 0.2%

NCCCC[C@H](N)C(=O)O [lysine]
Lowest Eh reached, Group A [4]: 95 millivolts

N[C@@H](CCC(=O)O)C(=O)O [glutamic]
Lowest Eh reached, Group B [4]: 30 millivolts

sodium chlorite
Inhibition of VSC production (oral bacteria [2]; Example VII, 0.1% sodium chlorite solution, 5 ml for 30 seconds): no inhibition of VSC production

N=C(N)NCCC[C@H](N)C(=O)O [arginine]
Lowest Eh reached, Group B [4]: 25 millivolts

N[C@@H](Cc1ccc(O)cc1)C(=O)O [tyrosine]
Lowest Eh reached, Group B [4]: 40 millivolts

N[C@@H](CC(=O)O)C(=O)O [aspartic]
Lowest Eh reached, Group A [4]: 80 millivolts
